Data on 83 compounds can be found in PubChem BioAssay AID1205 (EPA DSSTox, 2008).

Calls of active or inactive are those of the source.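 Rule for the calls: active = tumour findings in long-term animal cancer tests in more than one sex, species or organ; inactive = no tumour finding and more than one negative test.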

This data set in a line: DSSTox (CPDBAS) Carcinogenic Potency Database Summary MultiCellCall Results. Conditions: animal carcinogenicity bioassays, multi-cell call summary. The gist of the method: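 Summary call drawn from chronic long-term cancer bioassays in rats, mice, hamsters, dogs and nonhuman primates, using the most positive result per sex-species. Score: multispecies=50, multisex=30, multisite=20, summed for combinations.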
`CCCCC(C)(O)C/C=C/[C@H]1[C@H](O)CC(=O)[C@@H]1CCCCCCC(=O)OC` (stereo partly drawn): the outcome was “inactive; multisex inactive; multispecies inactive”.

As for `Cc1c([N+](=O)[O-])c(C)c([N+](=O)[O-])c(C(C)(C)C)c1[N+](=O)[O-]`, the outcome is “active; multisite active; multisex active”.

On to `CC1(C)C(=O)Nc2ccc(C3=NNC(=O)CC3)cc21`, for which the outcome was “active; multisex active”.

Turning to `C#C[C@]1(O)CC[C@H]2[C@@H]3CCc4cc(OC)ccc4[C@H]3CC[C@@]21C`, the outcome is “inactive; multisex inactive”.

As to `Cc1cc(C)nc(-c2ccc([N+](=O)[O-])o2)n1`, the outcome was “active; multisite active”.

On to `CCCCOC(=O)c1ccc(O)cc1`, for which the outcome is “inactive; multisex inactive”.

As for `CC(C)OC(=O)Nc1ccccc1`, the outcome is “inactive; multisex inactive; multispecies inactive”.

`CC1(C)S[C@@H]2[C@H](NC(=O)COc3ccccc3)C(=O)N2[C@H]1C(=O)O`: the outcome is “inactive; multisex inactive; multispecies inactive”.

Regarding `CC(=O)Nc1ccc(O)cc1`, the outcome is “active; multisite active; multisex active; multispecies active”.

As for `NNC(=O)c1ccncc1`, the outcome was “active; multisite active; multisex active; multispecies active”.

Consider `OC[C@H]1O[C@@](CO)(O[C@H]2O[C@H](CO)[C@@H](O)[C@H](O)[C@H]2O)[C@@H](O)[C@@H]1O`, for which the outcome is “inactive; multisex inactive”.

As to `c1ccc2c(c1)cc1ccc3cccc4ccc2c1c34`, the outcome was “active; multisite active; multisex active; multispecies active”.

Turning to `CC(C(O)c1ccccc1)N(C)N=O` (stereo not drawn), the outcome is “active; multisite active”.

Take `ClC1C2(Cl)C3C4C5OC5C5C4C1(Cl)C(Cl)(C53)C2(Cl)Cl` (stereo not drawn): the outcome was “inactive; multisex inactive; multispecies inactive”.

Take `CN(C)CCOC(c1ccccc1)c1ccccc1`: the outcome is “inactive; multisex inactive; multispecies inactive”.

With `Cc1c(N)cccc1N`, the outcome was “inactive; multisex inactive; multispecies inactive”.

Turning to `O=S(=O)(O)c1c(N=Nc2c(O)ccc3ccccc23)ccc2ccccc12`, the outcome was “inactive; multisex inactive”.

On to `O=P(OCCCl)(OCCCl)OCCCl`, for which the outcome is “active; multisite active; multisex active; multispecies active”.

Turning to `Oc1ccccc1`, the outcome was “inactive; multisex inactive; multispecies inactive”.

Take `Nc1ccc(N=Nc2ccc(-c3ccc(N=Nc4c(S(=O)(=O)O)cc5cc(S(=O)(=O)O)c(N=Nc6ccccc6)c(O)c5c4N)cc3)cc2)c(N)c1`: the outcome is “active; multisite active; multisex active; multispecies active”.

`O=NN1CCCCCC1`: the outcome was “active; multisite active; multisex active”.

Regarding `C=CCCl`, the outcome is “inactive; multisex inactive”.

For `C[C@](N)(Cc1ccc(O)c(O)c1)C(=O)O`, the outcome was “inactive; multisex inactive; multispecies inactive”.

In the case of `Cc1ccc(/C(=C\CN2CCCC2)c2ccccn2)cc1`, the outcome was “inactive; multisex inactive; multispecies inactive”.

Regarding `Cc1c(N)nc(C)c2c1[nH]c1ccccc12`, the outcome is “active; multisex active; multispecies active”.

Take `COc1ccc(CN(CCN(C)C)c2ccccn2)cc1`: the outcome was “active; multisex active”.

With `Cc1ccc2ncccc2c1`, the outcome was “inactive; multisex inactive”.

Turning to `CN(C)CCN(Cc1cccs1)c1ccccn1`, the outcome was “active; multisex active”.

As for `O=C1c2ccccc2C(=O)c2ccccc21`, the outcome is “inactive; multisex inactive”.

For `Cc1ccc(S(=O)(=O)OCCN(C)N=O)cc1`, the outcome was “active; multisite active; multisex active”.

As for `Nc1ccc(-c2ccc(F)cc2)cc1`, the outcome is “active; multisex active”.

In the case of `OCc1ccco1`, the outcome is “active; multisite active; multispecies active”.

`O=NN1CCCCCCCCCCCC1`: the outcome was “active; multisex active”.

Turning to `NC(=O)CCCCn1ccc(NC(N)=NCC(F)(F)F)n1`, the outcome is “active; multisex active; multispecies active”.

For the compound `C=CCN(CC(C)O)N=O` (stereo not drawn), the outcome was “active; multisite active”.

With `O=NN1CC(=O)NC1=O`, the outcome was “active; multisite active; multisex active”.

Take `COc1ccccc1N`: the outcome was “active; multisite active; multisex active; multispecies active”.

As to `CCCCOC(=O)COc1ccc(Cl)cc1Cl`, the outcome is “inactive; multisex inactive”.

As to `CCNC(=O)Nc1ncc([N+](=O)[O-])s1`, the outcome is “active; multisite active; multisex active; multispecies active”.

`NC(=O)N(CC(=O)O)N=O`: the outcome is “active; multisite active; multisex active”.

Turning to `O=C1c2cccc(O)c2C(=O)c2c(O)cccc21`, the outcome is “active; multisite active; multispecies active”.

As for `Cc1cnc(NC(=O)C2=C(O)c3ccccc3S(=O)(=O)N2C)s1`, the outcome is “inactive; multisex inactive”.

In the case of `OCN(CO)c1nc(N(CO)CO)nc(N(CO)CO)n1`, the outcome was “active; multisite active”.

Turning to `O=S(O)S(=O)(=O)O`, the outcome was “inactive; multisex inactive”.

With `C[C@]12CC[C@H]3C(=CCc4cc(OS(=O)(=O)O)ccc43)[C@@H]1CCC2=O`, the outcome is “inactive; multisex inactive”.

On to `C=CCc1ccc(O)c(OC)c1`, for which the outcome is “inactive; multisex inactive; multispecies inactive”.

Regarding `CC(O)CN(C)N=O` (stereo not drawn), the outcome is “active; multisite active; multisex active”.

Regarding `CCCCN(CCCC)C(=S)[S-].CCCCN(CCCC)C(=S)[S-].[Ni+2]`, the outcome is “inactive; multisex inactive”.

In the case of `CN(C)[C@@H]1C(=O)C(C(N)=O)=C(O)[C@@]2(O)C(=O)C3=C(O)c4c(O)cccc4[C@@](C)(O)[C@H]3[C@H](O)[C@@H]12`, the outcome was “inactive; multisex inactive; multispecies inactive”.

Regarding `CCOP(=S)(OCC)Oc1ccc2c(C)c(Cl)c(=O)oc2c1`, the outcome is “inactive; multisex inactive; multispecies inactive”.

For the compound `NC(=O)NC1NC(=O)NC1=O` (stereo not drawn), the outcome was “inactive; multisex inactive”.

As for `C=CC(=O)OCC`, the outcome was “active; multisex active; multispecies active”.

In the case of `O=[N+]([O-])O`, the outcome was “inactive; multisex inactive”.

Consider `Cc1c(COC(=O)C2C(/C=C(\Cl)C(F)(F)F)C2(C)C)cccc1-c1ccccc1` (stereo not drawn), for which the outcome was “inactive; multisex inactive”.

As for `CN[C@H]1CC[C@@H](c2ccc(Cl)c(Cl)c2)c2ccccc21`, the outcome is “inactive; multisex inactive; multispecies inactive”.

For `N#CC(c1ccccc1)c1ccccc1`, the outcome is “inactive; multisex inactive”.

`O=C(O)CNCC(=O)O`: the outcome was “inactive; multisex inactive”.

Consider `C=C(C)[C@H]1Cc2c(ccc3c2O[C@@H]2COc4cc(OC)c(OC)cc4[C@@H]2C3=O)O1`, for which the outcome was “inactive; multisex inactive; multispecies inactive”.

`COc1cc(-c2ccc(N)c(OC)c2)ccc1N`: the outcome was “active; multisite active; multisex active; multispecies active”.

`CC(=O)Nc1ccc2c(c1)Cc1cc(NC(C)=O)ccc1-2`: the outcome was “inactive; multispecies inactive”.

Regarding `CC(=O)O[C@H]1CC[C@@]2(C)C(=CC[C@@H]3[C@@H]2CC[C@]2(C)C(=O)CC[C@@H]32)C1`, the outcome is “active; multisex active”.

Turning to `O=[N+]([O-])c1cccc2cccnc12`, the outcome was “active; multisex active”.

Take `CC(=O)Nc1ccc(CC(=O)O)cc1`: the outcome is “inactive; multisex inactive; multispecies inactive”.

As for `O=S(=O)(c1ccc(Cl)cc1)c1cc(Cl)c(Cl)cc1Cl`, the outcome was “inactive; multisex inactive”.

Consider `Cc1cccc(C)c1NC(=O)CN1CCCC1=O`, for which the outcome was “inactive; multisex inactive; multispecies inactive”.

For `CN(N=O)C(=O)NCCC[C@H](N)C(=O)O`, the outcome is “active; multisite active; multisex active”.

For `CC1(C)[C@@H](OC2O[C@H](C(=O)O)[C@@H](O)[C@H](O)[C@H]2O[C@H]2O[C@H](C(=O)O)[C@@H](O)[C@H](O)[C@H]2O)CC[C@]2(C)[C@H]3C(=O)C=C4[C@@H]5C[C@@](C)(C(=O)O)CC[C@]5(C)CC[C@@]4(C)[C@]3(C)CC[C@@H]12` (stereo partly drawn), the outcome was “inactive; multisex inactive”.

Regarding `CC1CN(N=O)C(=O)NC1=O` (stereo not drawn), the outcome is “inactive; multisex inactive”.

On to `O.O.O.O.O.O.O.O=S(=O)([O-])[O-].[Co+2]`, for which the outcome is “active; multisite active; multisex active; multispecies active”.

For `CNC(=O)Oc1cccc2c1OC(C)(C)C2`, the outcome is “inactive; multisex inactive”.

Consider `ClC(Cl)=C(Cl)c1c(Cl)c(Cl)c(Cl)c(Cl)c1Cl`, for which the outcome was “inactive; multisex inactive; multispecies inactive”.

As for `O=NN1CCC[C@H]1C(=O)O`, the outcome is “inactive; multisex inactive”.

For `COc1cc(/C=N/NC(=O)c2ccncc2)ccc1O`, the outcome was “active; multisite active”.

For `CCCN=[N+]([O-])CCC`, the outcome was “active; multisite active”.

`CCOC(=O)N(C)N=O`: the outcome is “active; multisite active”.

Regarding `Nc1nc(/C=C/c2ccc([N+](=O)[O-])o2)no1`, the outcome is “active; multisite active; multisex active”.

`C#CC(OC(N)=O)(c1ccccc1)c1ccc(Cl)cc1` (stereo not drawn): the outcome is “active; multisite active”.

For the compound `CCN(Cc1cccc(S(=O)(=O)O)c1)c1ccc(C(=C2C=CC(=[N+](CC)Cc3cccc(S(=O)(=O)O)c3)C=C2)c2ccccc2S(=O)(=O)[O-])cc1`, the outcome is “inactive; multisex inactive; multispecies inactive”.

Turning to `N=C1C=CC(=C(c2ccc(N)cc2)c2ccc(N)cc2)C=C1`, the outcome was “active; multisite active; multisex active; multispecies active”.

For the compound `O=C(Nc1cccc2c(=O)cc(-c3nn[nH]n3)oc12)c1ccc(OCCCCc2ccccc2)cc1`, the outcome was “inactive; multisex inactive”.

Turning to `CC/C(C)=N/O`, the outcome is “active; multispecies active”.

For the compound `S=C(S)NCCNC(=S)S`, the outcome is “inactive; multisex inactive”.

As for `O=S(=O)(O)c1ccc(N=Nc2c(O)ccc3cc(S(=O)(=O)O)ccc23)cc1`, the outcome was “inactive; multisex inactive; multispecies inactive”.
